Reference: patent publication US20240261443A1, “COMPOUNDS AND COMPOSITIONS USEFUL AS RADIOTRACERS FOR IMAGING OF REACTIVE OXIDATIVE SPECIES” (Wake Forest University Health Sciences, priority 2019, published 2024)

Key:
Ex vivo serum stability = format: in vitro ADME; details: human serum, 37° C., after 120 min of tracer synthesis
Description: The ex vivo serum stability of [^18F]KS1 and [^18F]KS2 were analyzed in human serum samples, following previously published methods (Sai et al., Peptide-based PET imaging of the tumor restricted IL13RA2 biomarker. Oncotarget 2017, 5; Sattiraju et al., IL13RA2 targeted alpha particle therapy against glioblastoma. Journal of Nuclear Medicine 2016, 57 (supplement 2), 634; Wang et al., Evaluation of F-18-labeled amino acid derivatives and [18F]FDG as PET probes in a brain tumor-bearing animal model. Nuclear Medicine and Biology 2005, 32 (4), 367-375). Briefly, radiotracer was added to the human serum sample, and incubated at 37° C. Radioactive serum mixture was injected into the QC-HPLC system at 5 min, 30 min, 1 h, 1.5 h, 2 h, 2.5 h, and 3 h post radiotracer synthesis. Radiolysis through defluorination and/or oxidation of the radiotracers (if any) can be seen as new radiochemical peaks at different retention times (Rt) than the original product peak (Jin et al., A promising F-18 labeled PET radiotracer (-)-[18F]VAT for assessing the VAChT in vivo. Journal of Nuclear Medicine 2015, 56 (supplement 3); Koglin et al., [F-18]BAY 85-8050: A novel tumor specific probe for PET imaging-Preclinical results. Journal of Nuclear Medicine 2010, 51 (supplement 2), 1535; […] et al., Imaging COX-2 expression in cancer using PET/SPECT radioligands: current status and future directions. […]

[1] = Ex vivo biodistribution in normal ICR mice; details: for blood uptake / kidney uptake / liver uptake: in %ID/g (unit assumed)
[2] = test system: SCC-61 and rSCC-61 cell lines; assay: MitoSOX fluorescence ROS assay, with or without SOD blocker; format: cell-based, human
Description: As a first-line tool to screen KS1 and KS2: SCC-61 has higher intracellular ROS than rSCC-61. MitoSOX is a mitochondrion-targeted dihydroethidium based derivative that primarily detects ROS (superoxide anion) produced within mitochondria. Mitosox assays without any ligands were used as controls. The two cell lines were treated with KS1, KS2 and ascorbate (10.0 μM) and incubated for an hour. MitoSOX (1.0 μM) in phenol red-free DMEM/F12 media was added and incubated for an additional 10 min. The cells were then washed with PBS and imaged in the same media.
In addition to testing KS1 with the MitoSOX assay, we compared our results with no ligand controls and ascorbate as a reference standard. The two cell lines were treated with KS1 and ascorbate (10.0 μM) and incubated for an hour. MitoSOX (1.0 μM) in phenol red-free DMEM/F12 media was added and incubated for an additional 10 min. The cells were then washed with PBS and imaged in the same media. Ligand specificity is commonly determined by pretreating the cells with high concentrations of blockers. Superoxide dismutase (SOD), an enzyme that selectively suppresses accumulation of ROS-superoxide peroxide anions, was added as blocker (1.0 mM) 60 min before the treatment of KS1 (Bielski et al., Chemistry of ascorbic acid radicals. in Ascorbic Acid: Chemistry, Metabolism, and Uses. Chapter. 1982; 4:81-100). Fluorescence was subsequently measured and its intensity was quantified in f.u (fluorescence units).
Ligand specificity is commonly determined by pretreating the cells with high concentrations of blockers. We used superoxide dismutase (SOD), an enzyme that selectively suppresses accumulation of ROS-superoxide peroxide anions (Bielski et al., Chemistry of ascorbic acid radicals. in Ascorbic Acid: Chemistry, Metabolism, and Uses. Chapter 1982, 4, 81-100). The same MitoSOX assay with KS1 and KS2 (10 μM) was performed by pretreating the SCC-61 cells with SOD (1.0 mM) for 60 min.

SCC-61 cell line (HNSCC) = assay: MTT cytotoxicity IC50 assay, SCC-61; format: cell-based, human; details: Homo sapiens, SCC-61, MTT
Description: The cells were seeded at density 5×10^3 cells/well. After 24 h pre-incubation period, cells were treated with 0.01 mM to 2.0 mM of freshly prepared KS1 and KS2 along with ascorbate (n=3) for 48 h. 0.2% of DMSO served as vehicle control. After 48 h, the solutions were removed from all plates and MTT assays performed following the published protocols. IC50 values are presented as mean±SD from at least three independent experiments.
There is growing evidence for a therapeutic role of ascorbate against several cancers (Creagan et al., Failure of High-Dose Vitamin C (Ascorbic Acid) Therapy to Benefit Patients with Advanced Cancer. New England Journal of Medicine 1979, 301 (13), 687-690; Chen et al., Pharmacologic ascorbic acid concentrations selectively kill cancer cells: action as a pro-drug to deliver hydrogen peroxide to tissues. Proceedings of the National Academy of Sciences of the United States of America 2005, 102 (38), 13604-13609; Prasad et al., High Doses of Multiple Antioxidant Vitamins: Essential Ingredients in Improving the Efficacy of Standard Cancer Therapy. Journal of the American College of Nutrition 1999, 18 (1), 13-25). Pharmacologic doses of ascorbate (oral and/or intravenous) could increase the effectiveness of cancer chemotherapy in many solid cancer therapies (López-Lizaro, Dual role of hydrogen peroxide in cancer: Possible relevance to cancer chemoprevention and therapy. Cancer Letters 2007, 252 (1), 1-8; Li et al., New Developments and Novel Therapeutic Perspectives for Vitamin C. The Journal of Nutrition 2007, 137 (10), 2171-2184; Klimant et al., Intravenous vitamin C in the supportive care of cancer patients: a review and rational approach. Current Oncology 2018, 25 (2), 139-148. The primary objective of this experiment was to determine the cytotoxic effects of KS1 at pharmacological concentrations. Cancer cell lines were selected based on their high ROS implications. […] These cell lines have been studied extensively with ascorbic acid treatments (Schoenfeld et al., O(2)(·−) and H(2)O(2)-Mediated Disruption of Fe Metabolism Causes the Differential Susceptibility of NSCLC and GBM Cancer Cells to Pharmacological Ascorbate. Cancer Cell 2017, 31 (4), 487-500.e8; Chen et al., Modulators of Redox Metabolism in Head and Neck Cancer. Antioxidants & Redox Signaling 2017, 29 (16), 1660-1690; Khandrika et al., Oxidative stress in prostate cancer. Cancer Lett 2009, 282 (2), 125-136.

intact in serum (Ex vivo serum stability) [%]	blood uptake ([1]; 5 min post injection)	kidney uptake ([1]; 5 min post injection)	liver uptake ([1]; 5 min post injection)	blood uptake ([1]; 120 min post injection)	kidney uptake ([1]; 120 min post injection)	liver uptake ([1]; 120 min post injection)	bone uptake ([1]; normal ICR mice)	brain uptake ([1]; normal ICR mice)	Structure (SMILES)	MitoSOX fluorescence in SCC-61 compared to rSCC-61 cells ([2]; 10.0 μM, 1 h incubation)	higher selectivity between the two cell lines compared to ascorbate selectivity ([2]; Example 4, SCC-61 vs rSCC-61, MitoSOX fluorescence) [fold]	higher differential selectivity between the high- and low-ROS cell lines compared to ascorbate ([2]; Example 5, SCC-61 vs rSCC-61, MitoSOX fluorescence) [fold]	fluorescent intensity of KS1-mitoSOX with SOD ([2]; SCC-61 cells, 10 μM, SOD (1.0 mM) pretreatment 60 min) [f.u]	fluorescent intensity of KS1-mitoSOX ([2]; SCC-61 cells, 10 μM, without SOD) [f.u]	decrease of fluorescent uptake by SOD pretreatment ([2]; SCC-61 cells, SOD (1.0 mM) for 60 min) [%]	IC50 (SCC-61 cell line (HNSCC); Example 7, 48 h) [µM]	IC50 (SCC-61 cell line (HNSCC); Example 13) [µM]
~90	1.361±0.71	14.793±1.33	9.72±2.55	0.31±0.071	3.23±1.30	2.124±1.12	No significant bone uptake	Poor brain uptake	O=C1O/C(=C/CCl)C(O)=C1OCc1ccc(OCC[18F])cc1 [[^18F]KS1]	–	–	–	–	–	–	–	–
–	–	–	–	–	–	–	–	–	O=C1O/C(=C/CCl)C(O)=C1OCc1ccc(OCCF)cc1 [KS1, (E)-5-(2-chloroethylidene)-3-(4-(2-fluoroethoxy)benzyloxy)-4-hydroxyfuran-2(5H)-one]	higher fluorescence	~10	~2.2	1842	3631	~50	288	718
